Experimental data published in patent publication US12128028B2, “Heterocyclic sulfonamide derivatives and pharmaceutical uses thereof” (METRION BIOSCIENCES LIMITED, priority 2018, dated 2024).

Each compound was assayed against human Kv1.3 (Homo sapiens (Human), UniProt P22001) (assay: Kv1.3 potency evaluation, automated patch clamp electrophysiology (QPatch HT) in CHO-Kv1.3 cells). Conditions: whole-cell QPatch HT, % inhibition of charge, step to +30 mV, four concentrations, N≥3 cells, read-out: hKv1.3 IC50.
human Kv1.3, sequence (P22001 whole entry): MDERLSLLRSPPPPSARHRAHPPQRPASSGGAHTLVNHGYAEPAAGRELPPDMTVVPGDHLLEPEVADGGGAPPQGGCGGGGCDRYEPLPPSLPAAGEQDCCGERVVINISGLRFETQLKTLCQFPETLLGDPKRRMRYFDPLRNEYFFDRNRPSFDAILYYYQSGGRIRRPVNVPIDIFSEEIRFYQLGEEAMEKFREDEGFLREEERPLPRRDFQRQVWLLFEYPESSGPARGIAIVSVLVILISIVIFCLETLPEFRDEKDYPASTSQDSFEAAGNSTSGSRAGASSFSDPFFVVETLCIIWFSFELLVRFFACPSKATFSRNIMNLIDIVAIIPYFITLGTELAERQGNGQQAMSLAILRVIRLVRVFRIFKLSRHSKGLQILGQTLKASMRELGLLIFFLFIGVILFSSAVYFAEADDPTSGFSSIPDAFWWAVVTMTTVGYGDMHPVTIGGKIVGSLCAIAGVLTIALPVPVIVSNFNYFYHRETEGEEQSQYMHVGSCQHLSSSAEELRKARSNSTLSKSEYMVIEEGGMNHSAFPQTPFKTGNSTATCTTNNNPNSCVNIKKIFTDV
Assay type: cell-based
Procedure, shortened: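 Automated whole-cell patch clamp in CHO cells stably expressing human Kv1.3; steps from −80 to +30 mV (500 ms) at 0.067 Hz. Four cumulative concentrations after vehicle (0.1-0.3% DMSO); charge inhibition vs vehicle fitted by four-parameter logistic for IC50, N≥3 cells.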
In the case of `CC1(C)N=C(C23CC(N(Cc4ccc(C(F)F)cc4)S(=O)(=O)c4ccccc4)(C2)C3)N[C@H]1C(=O)NCCC(F)(F)F` (mixture of isomers) [Example 122], the IC50 is reported as 75 nM. `CC1(C)N=C(C23CC(N(Cc4ccc(Cl)c(F)c4)S(=O)(=O)c4ccccc4)(C2)C3)N[C@H]1C(=O)N1CCC(F)(F)CC1` (mixture of isomers) [Example 123] was tested, and the IC50 was 75 nM. Compound `CC1(C)N=C(C23CC(N(Cc4ccc(Cl)c(F)c4)S(=O)(=O)c4ccccc4)(C2)C3)N[C@H]1C(=O)N1CCC(F)CC1` (mixture of isomers) [Example 124] has an IC50 of 75 nM. In the case of `CC1(C)N=C(C23CC(N(Cc4ccc(Cl)c(F)c4)S(=O)(=O)c4ccccc4)(C2)C3)N[C@H]1C(=O)N1CC[C@@H](C(F)(F)F)C1` (mixture of isomers) [Example 125], the IC50 is reported as 75 nM. `CC1(C)N=C(C23CC(N(Cc4ccc(Cl)c(F)c4)S(=O)(=O)c4ccccc4)(C2)C3)N[C@H]1C(=O)NCC(F)(F)C(F)(F)F` (mixture of isomers) [Example 126] gave an IC50 of 76 nM. In the case of `CC1(F)CCN(C(=O)[C@@H]2NC(C34CC(N(Cc5ccc(Cl)c(F)c5)S(=O)(=O)c5ccccc5)(C3)C4)=NC2(C)C)C1` (mixture of isomers) [Example 127], the IC50 is reported as 77 nM. `CC1(C)N=C(C23CC(N(Cc4ccc(Cl)c(Cl)c4)S(=O)(=O)CCCF)(C2)C3)N[C@H]1C(=O)NCCC(F)(F)F` (mixture of isomers) [Example 128] showed an IC50 of 77 nM. Work on `CC1(C)N=C(C23CC(N(Cc4ccc(Cl)c(F)c4)S(=O)(=O)c4ccccc4)(C2)C3)N[C@H]1C(=O)N1CCC2(C1)CC2(F)F` (mixture of isomers) [Example 129] yielded an IC50 of 78 nM. For `CCCS(=O)(=O)N(Cc1ccc(Cl)c(Cl)c1)C12CC(C3=NC(C)(C)[C@H](C(=O)N4CCC(C(F)(F)F)CC4)N3)(C1)C2` (mixture of isomers) [Example 130], the IC50 was 78 nM. `CC1(C)N=C(C23CC(N(Cc4ccc(Cl)c(F)c4)S(=O)(=O)c4ccccc4)(C2)C3)N[C@H]1C(=O)N1CCCC(F)(F)CC1` (mixture of isomers) [Example 131] was tested, and the IC50 was 78 nM. For `CC1(C)N=C(C23CC(N(Cc4ccc(Cl)c(Cl)c4)S(=O)(=O)CCCF)(C2)C3)N[C@H]1C(=O)NCC1CC(F)(F)C1` (mixture of isomers) [Example 132], the IC50 was 78 nM. `CN(CC1CC(F)(F)C1)C(=O)[C@@H]1NC(C23CC(N(Cc4ccc(Cl)c(F)c4)S(=O)(=O)c4ccccc4)(C2)C3)=NC1(C)C` (mixture of isomers) [Example 133] showed an IC50 of 78 nM. `CC1(C)N=C(C23CC(N(Cc4ccc(Cl)c(Cl)c4)S(=O)(=O)c4ccccc4)(C2)C3)N[C@H]1C(=O)N1CCC12CC(F)(F)C2` (mixture of isomers) [Example 134] gave an IC50 of 79 nM. `CC1(C)N=C(C23CC(N(Cc4ccc(Cl)c(F)c4)S(=O)(=O)c4ccccc4)(C2)C3)N[C@@H]1C(=O)NCC1CC(F)(F)C1` (mixture of isomers) [Example 135] was tested, and the IC50 was 81 nM. `CCCS(=O)(=O)N(Cc1ccc(Cl)c(Cl)c1)C12CC(C3=NC(C)(C)[C@H](C(=O)NCCC(F)(F)F)N3)(C1)C2` (mixture of isomers) [Example 136] gave an IC50 of 82 nM. In the case of `CC1(C)N=C(C23CC(N(Cc4ccc(Cl)cc4)S(=O)(=O)CCC(F)F)(C2)C3)N[C@H]1C(=O)NCCC(F)(F)F` (mixture of isomers) [Example 137], the IC50 is reported as 82 nM. In the case of `CC1(C)N=C(C23CC(N(Cc4ccc(C(F)(F)F)cc4)S(=O)(=O)c4ccccc4)(C2)C3)N[C@H]1C(=O)NCCC(F)(F)F` (mixture of isomers) [Example 138], the IC50 is reported as 84 nM. Compound `CC(C)(C)CS(=O)(=O)N(Cc1ccc(Cl)cc1)C12CC(C3=NC(C)(C)[C@H](C(=O)NCCC(F)(F)F)N3)(C1)C2` (mixture of isomers) [Example 139] has an IC50 of 84 nM. With `CC1(C)N=C(C23CC(N(Cc4ccc(Cl)c(F)c4)S(=O)(=O)c4ccccc4)(C2)C3)N[C@H]1C(=O)NCC(F)(F)F` (mixture of isomers) [Example 140] the IC50 was 84 nM. In the case of `CC(C)(CC(F)(F)F)NC(=O)[C@@H]1NC(C23CC(N(Cc4ccc(Cl)c(F)c4)S(=O)(=O)c4ccccc4)(C2)C3)=NC1(C)C` (mixture of isomers) [Example 141], the IC50 is reported as 84 nM. For `CC1(C)N=C(C23CC(N(Cc4ccc(Cl)c(Cl)c4)S(=O)(=O)CCCF)(C2)C3)N[C@H]1C(=O)NCC(F)(F)C(F)(F)F` (mixture of isomers) [Example 142], the IC50 was 84 nM. `CCCS(=O)(=O)N(Cc1ccc(Cl)c(Cl)c1)C12CC(C3=NC(C)(C)[C@H](C(=O)NCC4(C(F)(F)F)CC4)N3)(C1)C2` (mixture of isomers) [Example 143] was tested, and the IC50 was 85 nM. In the case of `CC1(C)N=C(C23CC(N(Cc4ccc(Cl)c(F)c4)S(=O)(=O)c4ccccc4)(C2)C3)N[C@H]1C(=O)N1CCC2(C1)CC(F)(F)C2` (mixture of isomers) [Example 144], the IC50 is reported as 87 nM. `CC1(C)N=C(C23CC(N(Cc4ccc(Cl)c(F)c4)S(=O)(=O)c4ccccc4)(C2)C3)N[C@@H]1C(=O)NCCC(F)(F)F` (mixture of isomers) [Example 146] was tested, and the IC50 was 88 nM. Compound `CN(CCC(F)(F)F)C(=O)[C@@H]1NC(C23CC(N(Cc4ccc(Cl)c(Cl)c4)S(=O)(=O)c4ccccc4)(C2)C3)=NC1(C)C` (mixture of isomers) [Example 147] has an IC50 of 88 nM. `CC1(C)N=C(C23CC(N(Cc4ccc(Cl)c(F)c4)S(=O)(=O)c4ccccc4)(C2)C3)N[C@H]1C(=O)NCCC1(C(F)(F)F)CC1` (mixture of isomers) [Example 149] was tested, and the IC50 was 89 nM. `CC(F)(F)CCS(=O)(=O)N(Cc1ccc(Cl)c(Cl)c1)C12CC(C3=NC(C)(C)[C@H](C(=O)NCCC(F)(F)F)N3)(C1)C2` (mixture of isomers) [Example 150] showed an IC50 of 90 nM. `CN(C(=O)[C@@H]1NC(C23CC(N(Cc4ccc(Cl)c(F)c4)S(=O)(=O)c4ccccc4)(C2)C3)=NC1(C)C)C1CC(F)(F)C1` (mixture of isomers) [Example 151] was tested, and the IC50 was 90 nM. `CC1(C)N=C(C23CC(N(Cc4ccc(Cl)cc4)S(=O)(=O)c4cccc(C(F)(F)F)c4)(C2)C3)N[C@H]1C(=O)NCCC(F)(F)F` (mixture of isomers) [Example 152] gave an IC50 of 91 nM. `CN(C(=O)[C@@H]1NC(C23CC(N(Cc4ccc(Cl)c(Cl)c4)S(=O)(=O)c4ccccc4)(C2)C3)=NC1(C)C)C1CC(C(F)F)C1` (mixture of isomers) [Example 153] was tested, and the IC50 was 91 nM. Compound `CC1(C)N=C(C23CC(N(Cc4ccc(Cl)cc4)S(=O)(=O)c4ccccc4)(C2)C3)N[C@H]1C(=O)NCc1c(F)cc(F)cc1F` (mixture of isomers) [Example 154] has an IC50 of 91 nM. With `CC1(C)N=C(C23CC(N(Cc4cc(F)c(Cl)c(F)c4)S(=O)(=O)c4ccccc4)(C2)C3)N[C@H]1C(=O)NCCC(F)(F)F` (mixture of isomers) [Example 155] the IC50 was 92 nM. Work on `CC(F)(F)CCS(=O)(=O)N(Cc1ccc(Cl)c(Cl)c1)C12CC(C3=NC(C)(C)[C@H](C(=O)NCC(F)(F)C(F)(F)F)N3)(C1)C2` (mixture of isomers) [Example 156] yielded an IC50 of 92 nM. For `CC(F)(F)CCS(=O)(=O)N(Cc1ccc(Cl)c(Cl)c1)C12CC(C3=NC(C)(C)[C@H](C(=O)NCC4CC(F)(F)C4)N3)(C1)C2` (mixture of isomers) [Example 158], the IC50 was 95 nM. For `CC(C)(F)CNC(=O)[C@@H]1NC(C23CC(N(Cc4ccc(Cl)c(Cl)c4)S(=O)(=O)CCC(C)(F)F)(C2)C3)=NC1(C)C` (mixture of isomers) [Example 159], the IC50 was 95 nM. Work on `CC1(C)N=C(C23CC(N(Cc4ccc(Cl)c(Cl)c4)S(=O)(=O)c4ccccc4)(C2)C3)N[C@H]1C(=O)NC1CC1C(F)(F)F` (mixture of isomers) [Example 160] yielded an IC50 of 97 nM. With `CC1(C)N=C(C23CC(N(Cc4ccc(Cl)c(F)c4)S(=O)(=O)c4ccccc4)(C2)C3)N[C@H]1C(=O)NCC1(C(F)(F)F)CCC1` (mixture of isomers) [Example 162] the IC50 was 98 nM. With `CC1(C)N=C(C23CC(N(Cc4ccc(Cl)c(F)c4)S(=O)(=O)c4ccccc4)(C2)C3)N[C@H]1C(=O)NCC(C)(C)C(F)(F)F` (mixture of isomers) [Example 163] the IC50 was 98 nM. `CC1(C)N=C(C23CC(N(Cc4ccc(Cl)c(Cl)c4)S(=O)(=O)CCC(F)F)(C2)C3)N[C@H]1C(=O)NCCC(F)(F)F` (mixture of isomers) [Example 165] gave an IC50 of 99 nM. `CC1(C)N=C(C23CC(N(Cc4ccc(Cl)c(F)c4)S(=O)(=O)c4ccccc4)(C2)C3)N[C@H]1C(=O)N1CCC(F)(F)C2(CC2)C1` (mixture of isomers) [Example 166] gave an IC50 of 99 nM. Compound `CC1(C)N=C(C23CC(N(Cc4ccc(Cl)c(Cl)c4)S(=O)(=O)c4ccccc4)(C2)C3)N[C@H]1C(=O)N1CCC(F)(F)C2(CC2)C1` (mixture of isomers) [Example 167] has an IC50 of 99 nM. With `CC1(C)N=C(C23CC(N(Cc4ccc(Cl)c(F)c4)S(=O)(=O)c4ccccc4)(C2)C3)N[C@H]1C(=O)NC(C1CC1)C1CC1` (mixture of isomers) [Example 168] the IC50 was 99 nM. For `CC1(C)N=C(C23CC(N(Cc4ccc(Cl)c(F)c4)S(=O)(=O)c4ccccc4)(C2)C3)N[C@H]1C(=O)NC1CC1C(F)(F)F` (mixture of isomers) [Example 169], the IC50 was 100 nM. `CC1(C)N=C(C23CC(N(Cc4ccc(Cl)cc4)S(=O)(=O)C4CCC4)(C2)C3)N[C@H]1C(=O)NCCC(F)(F)F` (mixture of isomers) [Example 170] gave an IC50 of 101 nM. In the case of `CC1(C)N=C(C23CC(N(Cc4ccc(Cl)c(F)c4)S(=O)(=O)c4ccccc4)(C2)C3)N[C@H]1C(=O)N1CC[C@H](C(F)(F)F)C1` (mixture of isomers) [Example 171], the IC50 is reported as 102 nM. Compound `CC1(C)N=C(C23CC(N(Cc4ccc(Cl)c(F)c4)S(=O)(=O)c4ccccc4)(C2)C3)N[C@H]1C(=O)N1CC(C(F)(F)F)C1` (mixture of isomers) [Example 172] has an IC50 of 103 nM. In the case of `CCCS(=O)(=O)N(Cc1ccc(Cl)c(Cl)c1)C12CC(C3=NC(C)(C)[C@H](C(=O)NC4CCC(F)(F)CC4)N3)(C1)C2` (mixture of isomers) [Example 174], the IC50 is reported as 103 nM. Work on `CC(C)(C)NC(=O)[C@@H]1NC(C23CC(N(Cc4ccc(Cl)c(F)c4)S(=O)(=O)c4ccccc4)(C2)C3)=NC1(C)C` (mixture of isomers) [Example 175] yielded an IC50 of 104 nM.
